Reference: patent US10465196B2, “Treatment of C9FTD/ALS by targeting RNA expanded repeat sequences” (THE SCRIPPS RESEARCH INSTITUTE, priority 2014, dated 2019)
“Also recorded” adds a separate entry of the source. Values belong to the compound of their own block, whether it stands above or below them.

Legend:
r(GGGGCC)8 [1] = experiment: Biolayer interferometry (BLI) binding affinity, r(GGGGCC)8; conditions: BLI kinetic binding; no additional cation
Method: (§1) The RNA (200 μL aliquots) was then added to a black 96-well plate (Greiner Bio-One). […] A sample with no compound was used as background. All experiments were performed at 30° C. with agitation set to 1000 rpm. The biotinylated RNA (ligand) was loaded onto the surface of streptavidin biosensors (SA) for 660 s. […] Biosensors were then washed in 1× Kinetics Buffer for 300 s followed by association of the compound (analyte) for 5000 s. Finally, dissociation of the ligand-analyte interaction was analyzed for 5000 s. The resulting curves were corrected by subtracting the response recorded on a sensor loaded with ligand (RNA) but incubated with no analyte (compound). Data analyses and curve fitting were completed using Octet Data Analysis, version 7.0. Experimental data were fitted using the 2:1 heterogeneous ligand (HL) curve fit. Global analysis of all data sets acquired for different analyte concentrations, assuming reversible binding, was completed using nonlinear least squares fitting. […] [formula] where [Analyte] is the concentration of compound, Req is the estimated response at equilibrium, kon is association constant, koff is dissociation constant.

r(CGG)12 = experiment: Biolayer interferometry (BLI) binding affinity, r(CGG)12
Method: as §1

[2] = system: hairpin with a fully paired stem; experiment: Biolayer interferometry (BLI) binding affinity, fully paired hairpin
Method: as §1

r(GGGGCC)8 [3] = experiment: Optical melting of r(GGGGCC)8 in the presence of small molecule; type: binding; conditions: for increase of Tm of r(GGGGCC)8 / stabilization of the RNA (r(GGGGCC)8 stability): 1 μM RNA, 3 μM compound; for increase of Tm of r(GGGGCC)8 / stabilization of the RNA (r(GGGGCC)8 stability) / ΔG / Tm: 100 mM NaCl; for ΔG: 37° C.; for ΔG / ΔH / ΔS / Tm: r(GGGGCC)8 1 uM + compound 3 μM; for ΔH / ΔS: 10 mM Tris HCl pH 7.4, 100 mM NaCl
r(GGGGCC)66 = experiment: Identification of cellular RNA targets by 1a-CA-biotin pull-down and qRT-PCR (competitive profiling); type: cell-based; conditions: co-treatment with 1a-CA-biotin and compound
[4] = system: (GGGGCC)66-expressing cells; experiment: Western blot analysis of c9RAN proteins (RAN translation); type: cell-based; conditions: HEK293 cells; 100 μM, 24 h (for compound 3)
[5] = system: (GGGGCC)66-expressing cells; experiment: RNA-FISH of nuclear foci; type: cell-based; conditions: compound treatment 24 h
Method: RNA fluorescence in situ hybridization (FISH) of ([NT]-expressing cells. […] Cells were hybridized with denatured Cy3-conjugated ([NT])4 probe (2 ng/μl) in hybridization buffer (50% formamide, 10% dextran sulfate, 0.1 mg/mL yeast tRNA, 2×SSC, 50 mM sodium phosphate) overnight at 37° C. Cells were then washed once with 40% formamide/1×SSC for 30 min at 37° C. and twice with DEPC-PBS at room temperature for 5 min, followed by counterstaining with Hoechst 33258 (1 μg/ml, Invitrogen). Immunostained cells were visualized using a Zeiss Axiovert Fluorescence Microscope with apotome module. […] To quantify foci-bearing cells, coverslips mounted on slides were scanned by Aperio ScanScope. Ten fields were randomly selected under 20× magnification. For each field, the number of foci-positive nuclei and the total number of nuclei were counted using MetaMorph software. These counts were used to determine the average percentage of foci-positive cells for each condition.

[6] = system: (GGGGCC)66-expressing cells; experiment: Poly(GP) MSD immunoassay of cell lysates; type: cell-based; conditions: 24 h
Method: Western blot analysis of c9RAN proteins. HEK293 cells were cultured in Opti-Mem supplemented with 10% FBS and 1% penicillin/streptomycin. […] Twenty-four hours later, cell pellets were collected. […] Western blotting was performed as previously described (Gendron et al., 2013). […] After centrifugation at 16,000×g for 20 min at 4° C., the supernatant was collected and protein concentration determined by BCA assay. […] Anti-GAPDH (1:10,000, BioDesign) was used to ensure equal loading among wells. Membranes were washed three times for 10 min in TBST and incubated with donkey anti-rabbit or anti-mouse IgG conjugated to horseradish peroxidase (1:5000; […] Protein expression was visualized by enhanced chemiluminescence treatment and exposure to film. Immunoassay analysis of c9RAN proteins. As an alternative means to measure poly(GP) proteins, Meso Scale Discovery (MSD) electrochemiluminescence detection technology was utilized to establish sandwich immunoassays using polyclonal anti-GP as capture and detection antibodies. […] Poly(GP) proteins were also measured in lysates from cultured cells (10-35 μg of protein per well) prepare as described above, or from RIPA-soluble homogenates from frozen frontal cortical tissues (35 μg of protein per well). Brain homogenates were prepared as previously described (Almeida et al., 2013). In brief, tissue was lysed in cold RIPA buffer and sonicated on ice. Lysates were cleared by centrifugation at 100,000 g for 30 min at 4° C. The supernatant was collected and protein concentration was determined by BCA assay.

[7] = system: r(CCCCGG)66-expressing cells; experiment: RAN translation in cells expressing antisense repeats (immunoassay); type: cell-based; conditions: 100 μM, 24 h
Method: Immunoassay analysis of c9RAN proteins. As an alternative means to measure poly(GP) proteins, Meso Scale Discovery (MSD) electrochemiluminescence detection technology was utilized to establish sandwich immunoassays using polyclonal anti-GP as capture and detection antibodies. […] Poly(GP) proteins were also measured in lysates from cultured cells (10-35 μg of protein per well) prepare as described above, or from RIPA-soluble homogenates from frozen frontal cortical tissues (35 μg of protein per well). Brain homogenates were prepared as previously described (Almeida et al., 2013). In brief, tissue was lysed in cold RIPA buffer and sonicated on ice. Lysates were cleared by centrifugation at 100,000 g for 30 min at 4° C. The supernatant was collected and protein concentration was determined by BCA assay. […] A second MSD sandwich immunoassay was developed for the detection of poly(PR) proteins using polyclonal anti-PR as capture and detection antibodies. To validate specificity of the poly(PR) assay, lysates from cells transfected to express each possible protein RAN translated from the sense or antisense transcripts of the expanded C9ORF72 repeat [GFP-(GA)5, GFP-(GR)5, GFP-(GP)5, GFP-(PA)5, GFP-(PR)5] were assayed, as were lysates from cells expressing ([…]. 2F). Western blot analysis and RNA-FISH of cells expressing antisense repeats. […]

[8] = system: r(CCCCGG)66-expressing cells; experiment: RNA-FISH of cells expressing antisense repeats; type: cell-based
Method: Western blot analysis and RNA-FISH of cells expressing antisense repeats. To examine the effect of 1a on RAN translation and foci formation in cells expressing antisense ([NT]) repeats, we utilized a previously described ([NT])66 expression vector (Gendron et al., 2013). Transfection, treatment, Western blotting, and RNA-FISH using a [NT] probe from IDT, were conducted as described above for ([NT])66-expressing cells.

[9] = system: cells expressing (CGG)88 placed in the 5'UTR of GFP; experiment: Western blot analysis of RAN translation in a FXTAS cell model; type: cell-based; conditions: COS7 cells, anti-GFP
Method: Western blot analysis of RAN translation in a FXTAS cell model. Studies were completed using a plasmid in which r(CGG)88 is embedded in the 5′ UTR of an open reading frame encoding GFP (Todd et al., 2013). Therefore, RAN products are fused to GFP and can be detected using an anti-GFP antibody (Todd et al., 2013). COS7 cells were grown as monolayers in 96-well plates in growth medium (1× DMEM, 10% FBS, and 1× GlutaMax (Invitrogen)). […] Compound 1a was added to the transfection cocktail, which was then applied to the cells. The transfection cocktail was replaced with growth medium containing 1a approximately 5 h post transfection, and the cells were incubated at 37° C. for 18 h. Cells were lysed in the plate using 100 μl/well of MPER Mammalian Protein Extraction Reagent (Pierce Biotechnology) containing 1 μl of Halt Protease Inhibitor cocktail (Thermo Scientific). Cellular proteins were separated by SDS-PAGE (10% polyacrylamide) and then transferred to a PVDF membrane by wet transfer method. Protein content was analyzed by Western blotting by using anti-GFP (Santa Cruz) or anti-β-actin (Sigma Aldrich) as primary antibodies and anti-IgG-horseradish peroxidase conjugate as the secondary antibody. Chemiluminescent signal was generated by SuperSignal West Pico Chemiluminescent substrate (Thermo Scientific), and the blot was imaged with X-ray film (Phenix Research).

C9ORF72+ iNeurons [10] = experiment: Poly(GP) and poly(PR) inclusions in iNeurons (immunocytochemistry); type: cell-based, human; conditions: 2 or 4 μM, four days
C9ORF72+ iNeurons [11] = experiment: RNA-FISH of RNA foci in iNeurons; type: cell-based, human; conditions: three C9ORF72+ iNeuron lines; 2 μM, four days
Method: Qiagen) for 15 min at 37° C., or with DNase I (3 U/ml; Invitrogen) for 30 minutes at room temperature, prior to dehydration. Cells were incubated in hybridization buffer (10% dextran sulfate, 50% formamide, 50 mM sodium phosphate buffer (pH 7), 2×SSC) at 66° C. for 20-60 min. […] Cells were hybridized with probe in a sealed, light-protected chamber for 16 h-24 h at 66° C. The coverslips were subsequently washed with 0.1% Tween-20/2×SSC for 5 min followed by three 10 min stringency washes in 0.1×SSC at 66° C. The cells were stained with Hoechst (Invitrogen), rinsed with DEPC-treated water, dehydrated through 70% and 100% ethanol and air dried. Coverslips were mounted with Prolong Gold antifade reagent (Life Technologies). […] For each of 3 cell lines, 3 fields were randomly selected per condition. For each field, the number of foci-positive nuclei and the total number of nuclei were counted to determine the average percentage of foci-positive cells.

C9ORF72 mRNA = experiment: qRT-PCR of C9ORF72 mRNA in iNeurons; type: cell-based, human; conditions: 4 μM, 4 d; all variants and long form
Method: RNA was extracted using the Direct-Zol RNA kit combined with in-column DNase I digestion, as per the manufacturer's instructions (Zymo Research, Irvine, Calif., USA). RNA integrity was obtained using the Agilent 2100 Bioanalyzer (Agilent Technologies, Santa Clara, Calif., USA). cDNA was obtained after reverse transcription polymerase chain reactions (RT-PCR) using approximately 500 ng of RNA with random primers and the High Capacity cDNA Transcription Kit (Applied Biosystems, Foster City, Calif., USA) as per the manufacturer's instructions. […] Relative quantification of C9ORF72 variants was determined using the ΔΔCt method and normalized to GAPDH.

[12] = system: r(CGG)60-expressing cells; conditions: cited from earlier work
r(GGGGCC)8 [13] = conditions: cited from earlier work

Kd (r(GGGGCC)8 [1]): 16 µM
Kd for r(CGG)12 compared with r(GGGGCC)8 (r(CGG)12): similar
binding to a hairpin with a fully paired stem compared with r(GGGGCC)8 [2]: bind more weakly
SMILES: CCN(CC)CCNC(=O)c1cc2cc(NC(=O)c3cc4cc(N)ccc4[nH]3)ccc2[nH]1 [Compound 3]
increase of Tm of r(GGGGCC)8 (r(GGGGCC)8 [3]): did not significantly affect
stabilization of the RNA (r(GGGGCC)8 stability) (r(GGGGCC)8 [3]): did not significantly affect
ΔG (r(GGGGCC)8 [3]): -9.10 ± 0.24 kcal/mol
ΔH (r(GGGGCC)8 [3]): -71.1 ± 1.5 kcal/mol
ΔS (r(GGGGCC)8 [3]): -200 ± 4 cal/K · mol
Tm (r(GGGGCC)8 [3]): 82.2 ± 0.2 °C
amount of r(GGGGCC)66 that forms an adduct with 1a-CA-biotin in the presence of compound (r(GGGGCC)66): significantly depleted
poly(GA) protein production (RAN translation) [4]: did not influence
synthesis of poly(GP) proteins (RAN translation) [4]: modestly inhibited
percentage of foci-positive cells [5]: not

SMILES: Cc1c2cc[n+](CCN3CCCCC3)cc2c(C)c2c1[nH]c1ccc(O)cc12 [Compound 1a]
Kd (r(GGGGCC)8 [1]): 9.7 µM
Kd for r(CGG)12 compared with r(GGGGCC)8 (r(CGG)12): similar
binding to a hairpin with a fully paired stem compared with r(GGGGCC)8 [2]: bind more weakly
increase of Tm of r(GGGGCC)8 (r(GGGGCC)8 [3]): 3.1 °C
stabilization of the RNA (r(GGGGCC)8 stability) (r(GGGGCC)8 [3]): 0.95 kcal/mol
ΔG (r(GGGGCC)8 [3]): -9.93 ± 0.15 kcal/mol
ΔH (r(GGGGCC)8 [3]): -74.4 ± 1.0 kcal/mol
ΔS (r(GGGGCC)8 [3]): -208 ± 3 cal/K · mol
Tm (r(GGGGCC)8 [3]): 84.7 ± 0.2 °C
amount of r(GGGGCC)66 that forms an adduct with 1a-CA-biotin in the presence of compound (r(GGGGCC)66): significantly depleted
poly(GA) protein production (RAN translation) [4]: significantly decreased
synthesis of poly(GP) proteins (RAN translation) [4]: significantly decreased
decrease in poly(GP) protein ([6]; 25 μM): 10%
decrease in poly(GP) protein ([6]; 50 μM): 18%
decrease in poly(GP) protein ([6]; 100 μM): 47%
percentage of foci-positive cells [5]: significantly decreased
poly(GP) proteins RAN translated from antisense transcripts [7]: no effect
poly(PR) proteins RAN translated from antisense transcripts [7]: no effect
percentage of cells bearing r(CCCCGG) foci [8]: no change
RAN translation in cells expressing (CGG)88 [9]: inhibits RAN translation
downstream canonical translation (GFP) [9]: does not affect
poly(PR) expression (inclusions), synthesized from the antisense transcript (C9ORF72+ iNeurons [10]): no change
percentage of cells with poly(GP) inclusions (RAN translation of poly(GP)) (C9ORF72+ iNeurons [10]; listed as la): significantly decreased; also recorded: dose-dependent decrease
percentage of cells with RNA foci (C9ORF72+ iNeurons [11]): significantly decreased
C9ORF72 mRNA levels (C9ORF72 mRNA): no effect
nuclear foci in r(CGG)60-expressing cells [12]: does reduce nuclear foci

SMILES: C[n+]1ccc(-c2c3nc(c(-c4cc[n+](C)cc4)c4ccc([nH]4)c(-c4cc[n+](C)cc4)c4ccc([nH]4)c(-c4cc[n+](C)cc4)c4nc2C=C4)C=C3)cc1 [TMPyP4]
binding to r(GGGGCC)8 in vitro (r(GGGGCC)8 [13]): binds
